These results are taken from ChEMBL document CHEMBL2146457, “Development of 'DFG-out' inhibitors of gatekeeper mutant kinases” (Bioorg Med Chem Lett, 2012).

Molecules are shown by their SMILES. Bounds are passed on as bounds.

A short description of data set [1]: Cytotoxicity against mouse BA/F3 cells expressing wild type Bcr-Abl. In kind it is functional, cell-based. The conditions noted are these: BaF3.
The nature of data set [2]: Cytotoxicity against mouse BA/F3 cells expressing imatinib resistant Bcr-Abl […] mutant. The data set is classed as functional, cell-based. The conditions noted are these: BaF3.
The nature of data set [3]: Cytotoxicity against wild type mouse BA/F3 cells. The conditions noted are these: BaF3. In kind it is cell-based.
Data set [4] is described as follows: MRT in rat at 2 mg/kg, po. In kind it is ADME, organism-based. Also noted: dose 2 mg/kg, route oral. To be noted: in vivo.
Data set [5] is described as follows: Clearance in rat at 2 mg/kg, po. In kind it is ADME, organism-based. To be noted: in vivo. Also noted: dose 2 mg/kg, route oral.
Data set [6] can be described thus: MRT in rat at 1 mg/kg, iv. The data set is classed as ADME, organism-based. Also noted: dose 1 mg/kg, route intravenous. To be noted: in vivo.
A short description of data set [7]: Cytotoxicity against mouse parental BA/F3 cells. To be noted: BaF3.
The nature of data set [8]: Cmax in rat at 2 mg/kg, po. The conditions noted are these: in vivo. On the set-up: dose 2 mg/kg, route oral. The data set is classed as ADME, organism-based.
Data set [9] can be described thus: Half life in rat at 1 mg/kg, iv. In kind it is ADME, organism-based. On the set-up: dose 1 mg/kg, route intravenous. To be noted: in vivo.
A short description of data set [10]: AUC in rat at 1 mg/kg, iv. The data set is classed as ADME, organism-based. On the set-up: dose 1 mg/kg, route intravenous. To be noted: plasma.
Data set [11] can be described thus: Volume of distribution at steady state in rat at 1 mg/kg, iv. The conditions noted are these: in vivo, read-out: Vdss. Also noted: dose 1 mg/kg, route intravenous. In kind it is ADME, organism-based.
Data set [12] can be described thus: Cmax in rat at 1 mg/kg, iv. In kind it is ADME, organism-based. Also noted: dose 1 mg/kg, route intravenous. To be noted: in vivo.
Data set [13] in a line: Half life in rat at 2 mg/kg, po. The data set is classed as ADME, organism-based. On the set-up: dose 2 mg/kg, route oral. To be noted: in vivo.
Data set [14] in a line: Clearance in rat at 1 mg/kg, iv. In kind it is ADME, organism-based. On the set-up: dose 1 mg/kg, route intravenous. The conditions noted are these: in vivo.
The subject of a further data set is Rattus norvegicus. Kind of data set: Oral bioavailability in rat at 2 mg/kg. The data set is classed as ADME, organism-based. The conditions noted are these: in vivo.
Data set [15] in a line: AUC in rat at 2 mg/kg, po. To be noted: plasma. On the set-up: dose 2 mg/kg, route oral. In kind it is ADME, organism-based.

Take `O=C(Nc1ccc(N2CCNCC2)c(C(F)(F)F)c1)c1cccc(-c2ccc3nc(NC(=O)C4CC4)sc3n2)c1`: the EC50 (usually the concentration needed to bring the measured effect to its halfway point) in data set [1] came out at 2.31 µM; in data set [2] it was 2.3 µM; in data set [3], 2.3 µM.

For `Nc1nc2ccc(-c3cccc(C(=O)Nc4cccc(C(F)(F)F)c4)c3)nc2s1`, the 50% effective concentration (EC50) in data set [1], in [2] and in data set [3] was more than 10 µM throughout.

For the molecule `CC(=O)Nc1nc2ccc(-c3cccc(C(=O)Nc4cccc(C(F)(F)F)c4)c3)nc2s1`, the results for the EC50 in data set [1], in data set [2] and in data set [3] were 5 µM, 3.77 µM and more than 10 µM, respectively.

With `O=C(Nc1cccc(C(F)(F)F)c1)c1cccc(-c2ccc3nc(NC(=O)C4CC4)sc3n2)c1`, the values for the EC50 in data set [1], in data set [2] and in [3] were 0.42 µM, 0.96 µM and 0.91 µM, respectively.

Take `O=C(Nc1cccc(C(F)(F)F)c1)c1cccc(-c2ccc3nc(NC(=O)C4CCNCC4)sc3n2)c1`: the EC50 in data set [1], in data set [2] and in [3] was more than 10 µM throughout.

In the case of `CC(=O)N1CCN(CCC(=O)Nc2nc3ccc(-c4cccc(C(=O)Nc5cccc(C(F)(F)F)c5)c4)nc3s2)CC1`, the figures for the EC50 in data set [1], in data set [2] and in [3] were 5.21 µM, more than 10 µM and more than 10 µM, respectively.

For `O=C(Nc1nc2ccc(-c3cccc(C(=O)Nc4cccc(C(F)(F)F)c4)c3)nc2s1)NC1CCNCC1`, the values for the concentration for a half-maximal effect (EC50) in [1], in data set [2] and in data set [3] were 7.6 µM, 7.18 µM and more than 10 µM, respectively.

For `Cc1nc(Nc2nc3ccc(-c4cccc(C(=O)Nc5cccc(C(F)(F)F)c5)c4)nc3s2)cc(N2CCNCC2)n1`, the EC50 in data set [1] turned out to be 1.9 µM; in data set [2] it was 2.41 µM; in data set [3] it was 6.74 µM.

With `O=C(Nc1cccc(C(F)(F)F)c1)c1cccc(-c2ccc3nc(Nc4ccc(S(=O)(=O)N5CCNCC5)cc4)sc3n2)c1`, the values for the concentration for a half-maximal effect (EC50) in data set [1], in [2] and in data set [3] were 6.21 µM, more than 10 µM and more than 10 µM, respectively.

Take `CCN1CCN(Cc2ccc(NC(=O)c3cccc(-c4ccc5nc(N)sc5n4)c3)cc2C(F)(F)F)CC1`: the concentration giving a half-maximal response (EC50) in [1], in data set [2] and in data set [3] was more than 10 µM in each case.

On to `CCN1CCN(Cc2ccc(NC(=O)c3cccc(-c4ccc5nc(NC(C)=O)sc5n4)c3)cc2C(F)(F)F)CC1`, for which the EC50 in data set [1] worked out at 0.139 µM; in data set [2], 0.193 µM; in data set [3] it was 4.16 µM.

Regarding `CCN1CCN(Cc2ccc(NC(=O)c3cccc(-c4ccc5nc(NC(=O)C6CC6)sc5n4)c3)cc2C(F)(F)F)CC1`, the mean residence time (MRT) – broadly, a mean duration of stay, worked out from the concentration-time curve – in data set [4] was 7.7 h; in data set [6], 8.1 h. For the same molecule, the apparent clearance (CL/F) (in general, clearance divided by bioavailability, as obtained after extravascular dosing) in data set [5] worked out at 4.46 L/h/kg. Besides, the EC50 in data set [7] turned out to be 3.08 µM; in [2] it was 0.156 µM; in data set [3], 3.08 µM. Further, the Cmax (usually the maximum level reached in the sampled fluid or tissue) in data set [8] amounted to 0.0531 µg/mL; in data set [12], 0.292 µg/mL. The values for the half-life in data set [9] and in data set [13] were 5.8 h and 4.7 h, respectively. In addition, the AUC (in general, concentration integrated over time) in data set [10] is 1.23 µg·h/mL; in data set [15], 0.462 µg·h/mL. Also, the Vd in [11] turned out to be 6.5 L/kg. In addition, the clearance (commonly the rate of elimination divided by the concentration) in data set [14] worked out at 0.822 L/h/kg. Besides, in the data set with Rattus norvegicus, the F came to 18.8%.

Take `CCN1CCN(Cc2ccc(NC(=O)c3cccc(-c4ccc5nc(Nc6ccccn6)sc5n4)c3)cc2C(F)(F)F)CC1`: the 50% effective concentration (EC50) in data set [1] was found to be 0.146 µM; in [2], 0.276 µM; in data set [3], 3.53 µM.

Consider `O=C(Nc1ccc(-n2ccnc2)cc1)c1cccc(-c2ccc3nc(NC(=O)C4CC4)sc3n2)c1`, for which the 50% effective concentration (EC50) in data set [1], in data set [2] and in [3] was more than 10 µM throughout.

On to `Cc1cn(-c2cc(NC(=O)c3cccc(-c4ccc5nc(NC(=O)C6CC6)sc5n4)c3)cc(C(F)(F)F)c2)cn1`, for which the EC50 in [1] stood at 0.38 µM; in [2], 0.19 µM; in [3] it was 1.99 µM. The MRT in [4] was determined as 5.3 h; in data set [6], 3.1 h. This molecule also gave a CL/F in data set [5] of 18.2 L/h/kg. Also, the maximum concentration (Cmax) was determined as 0.032 µg/mL in [8] and 0.672 µg/mL in data set [12]. Moreover, the half-life (in general, the time in which the quantity being followed falls by half) in data set [9] was 2.4 h; in [13], 3.7 h. In addition, the AUC in data set [10] was 1.85 µg·h/mL; in [15] it was 0.136 µg·h/mL. The Vd in data set [11] was 1.7 L/kg. Besides, in [14], the clearance stood at 0.57 L/h/kg. In the data set on Rattus norvegicus, this molecule came in with an F of 3.7%.

In the case of `CCN1CCN(Cc2ccc(NC(=O)c3ccc(C)c(-c4ccc5nc(NC(=O)C6CC6)sc5n4)c3)cc2C(F)(F)F)CC1`, the half-maximal effective concentration (EC50) was 0.001 µM in [1], 0.06 µM in data set [2] and 1.23 µM in [3].

As for `Cc1cn(-c2cc(NC(=O)c3ccc(C)c(-c4ccc5nc(NC(=O)C6CC6)sc5n4)c3)cc(C(F)(F)F)c2)cn1`, the EC50 in data set [1] came out at 0.03 µM; in data set [2], 0.56 µM; in [3] it was 4.67 µM.

Regarding `CCN1CCN(Cc2ccc(NC(=O)c3ccc(F)c(-c4ccc5nc(NC(=O)C6CC6)sc5n4)c3)cc2C(F)(F)F)CC1`, the EC50 in [1] is 0.02 µM; in [2], 0.3 µM; in [3], more than 10 µM.

Turning to `Cc1cn(-c2cc(NC(=O)c3ccc(F)c(-c4ccc5nc(NC(=O)C6CC6)sc5n4)c3)cc(C(F)(F)F)c2)cn1`, the values for the EC50 in data set [1], in [2] and in data set [3] were 0.02 µM, 0.59 µM and more than 10 µM, respectively.

Take `CCN1CCN(Cc2ccc(C(=O)Nc3cccc(-c4ccc5nc(NC(=O)C6CC6)sc5n4)c3)cc2C(F)(F)F)CC1`: the values for the EC50 in data set [1], in [2] and in data set [3] were 0.2 µM, 0.78 µM and more than 10 µM, respectively.

As to `CCN1CCN(Cc2ccc(NC(=O)Nc3cccc(-c4ccc5nc(NC(=O)C6CC6)sc5n4)c3)cc2C(F)(F)F)CC1`, the figures for the concentration giving a half-maximal response (EC50) in data set [1], in data set [2] and in [3] were 0.018 µM, 0.013 µM and 0.69 µM, respectively.

On to `Cc1cn(-c2cc(NC(=O)Nc3cccc(-c4ccc5nc(NC(=O)C6CC6)sc5n4)c3)cc(C(F)(F)F)c2)cn1`, for which the concentration for a half-maximal effect (EC50) in [1] is 1.24 µM; in [2], 0.55 µM; in data set [3], more than 10 µM.
